Experimental data taken from paper PMC10791743, “Selective CK1α degraders exert antiproliferative activity against a broad range of human cancer cell lines” (Nature Communications, 2024).
Several values for one entry are separate records, joined by “and”; a condition that tells them apart may be missing. Identical values can stand only once.

What was measured:
[1] = system: MOLM-13 cells; assay: Annexin-V staining for apoptosis, wild type MOLM-13; assay type: cell-based, human; conditions: for total apoptosis, flow cytometry: MOLM-13; for Late apoptosis, flow cytometry / Early apoptosis, flow cytometry: WT
Procedure: Wild type and CRBN^−/− MOLM-13 cells were grown in 12-well plates (TPP, Techno Plastic Products AG) with 500,000 cells per well in 2 ml total media volume. Cells were treated with 1 μl/ml DMSO or 1 μM compound in triplicate, and incubated for 24 or 72 h at 37 °C. To prepare samples, this buffer was used: 10 mM HEPES, 0.14 M NaCl, 2.5 mM CaCl2 pH 7.4, 2% v/v FBS in UltraPure water (Invitrogen). After incubation, samples were collected in 5-ml tubes for flow cytometry (Falcon). Single-stain controls consisted of ~150 μl of multiple samples combined. Wells were washed with 1 ml of buffer that was added to the corresponding sample tube. Cells were centrifuged at 500×g for 5 min at 4 °C to form a pellet. Supernatant was decanted and cells were washed again with 3 ml of buffer, then centrifuged. After decanting the supernatant, 3 μl of APC-conjugated anti-Annexin-V antibody (BioLegend) was added to each tube in the residual buffer left behind. Samples were mixed by vortex and incubated at room temperature in the dark for 20 min. Samples were then washed and centrifuged a final time, decanting the supernatant and blotting the tubes to remove residual buffer. 50 μl of buffer with DAPI was added to all appropriate samples and mixed, then analyzed by flow cytometry.
Supplementary Fig. 13: Gating for Annexin V flow cytometry analysis. Total cells were gated to remove cell debris, followed by single cell gating on the FSC-A/FSC-H diagonal. Within the single […]
Live cells are negative for both fluorescent markers, DAPI positive/APC negative cells are necrotic, APC positive/DAPI negative cells are still alive but in the early stages of apoptosis, and double positive cells are dead via apoptosis. Percentages of early and late apoptosis were plotted in supplementary figures 4 and 5.
(1 picture or pasted object on this page, not shown here)

[2] = target: CK1α (Homo sapiens, UniProt P48729+Q96SW2); assay: CK1α HiBiT live-cell kinetic degradation assay (HEK293 cells); assay type: cell-based; set-up: engineered by CRISPR/Cas9 to express endogenous CK1α (HEK293 cells) with a HiBiT tag
From the text: To measure cellular protein levels, we used cell lines that have been engineered by CRISPR/Cas9 to express endogenous CK1α (HEK293 cells) or IKZF1 (Jurkat cells) with a HiBiT tag, which when coupled with LgBiT expression forms NanoBiT, a bioluminescent protein that can be used for kinetic studies of protein degradation. […] Cell viability was also monitored with CellTiter Glo 2.0 (Promega) at the completion of the experiment to ensure that loss of protein was not a consequence of a loss of cell viability.
IKZF1-HiBiT Jurkat LgBiT stable cells were seeded at 60,000 cells/well in 50% growth media/50% CO2 independent medium supplemented with 10% FBS and 1× Endurazine substrate. […] A dose–response curve was generated by performing 3-fold dilutions of each compound including a DMSO-only control in growth media. For live cell kinetic degradation assays, diluted compounds were added to CK1α and β-catenin plates and placed in a GloMax Discover (Promega, Cat. #GM3000) preheated to 37 °C or added to IKZF1 plates and placed in a CLARIOstar Plus (BMG LABTECH) preheated to 37 °C.
Relative protein level was determined based on normalization to the DMSO control and reported at Fractional RLUs. Degradation rate and degradation maximums were calculated from Fractional RLUs as previously described[38] using GraphPad Prism software. β-catenin stabilization time of onset for each concentration curve was calculated in GraphPad Prism by fitting an unconstrained plateau followed by one phase association model using the equation below (Y = IF(X < X0, Y0,Y0+(Plateau−Y0)*(1−exp(−K*(X−X0))))). The parameter, X0 was used as time of onset for each compound concentration.

[3] = target: T1, CRBN (Homo sapiens, UniProt Q96SW2); assay: CRBN fluorescence polarization (FP) displacement assay; assay type: binding; set-up: key: % activity normalized to DMSO (0) and CC-220 (100) controls
T1 construct: 6XHis (N)
Procedure: The assay cocktail was prepared by combining 6XHis-CRBN-DDB1 protein (200 nM) and Cy5-O-Len probe (30 nM) in 20 mM HEPES pH 7, 150 mM NaCl, 0.005% Tween-20 assay buffer. […] Then 20 μL of the assay cocktail was dispensed to wells of the assay plate with a Multidrop Combi Reagent Dispenser (Thermo Fisher Scientific, USA). The plates were incubated in the dark for 1 h at room temperature and then read on an Envision plate reader (Perkin Elmer, USA). Raw intensity values for each compound at each concentration were normalized to obtain % activity using the following equation: 100×[(mean(negctrl)–compound)/(mean (negctrl)–mean (posctrl))], and then pooled from replicate experiments prior to fitting. Here, negctrl and posctrl refer to the negative (DMSO) and positive controls (CC-220) on each plate. Dose-response curves were fit to the Hill equation using the GraphPad Prism (version 10).

T1 sequence (Q96SW2 whole entry): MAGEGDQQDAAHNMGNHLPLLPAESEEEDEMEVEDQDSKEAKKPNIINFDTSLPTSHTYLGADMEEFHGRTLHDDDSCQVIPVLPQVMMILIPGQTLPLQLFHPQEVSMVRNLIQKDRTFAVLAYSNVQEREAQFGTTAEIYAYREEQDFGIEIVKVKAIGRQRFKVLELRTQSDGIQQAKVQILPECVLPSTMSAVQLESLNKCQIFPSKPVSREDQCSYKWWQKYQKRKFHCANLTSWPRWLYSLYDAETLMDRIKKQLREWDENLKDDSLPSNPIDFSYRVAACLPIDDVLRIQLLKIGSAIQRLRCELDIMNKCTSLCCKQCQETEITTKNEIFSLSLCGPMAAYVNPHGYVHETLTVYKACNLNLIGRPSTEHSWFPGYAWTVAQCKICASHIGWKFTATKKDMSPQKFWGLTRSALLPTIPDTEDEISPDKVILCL
T1 sequence (Q16531 whole entry partner): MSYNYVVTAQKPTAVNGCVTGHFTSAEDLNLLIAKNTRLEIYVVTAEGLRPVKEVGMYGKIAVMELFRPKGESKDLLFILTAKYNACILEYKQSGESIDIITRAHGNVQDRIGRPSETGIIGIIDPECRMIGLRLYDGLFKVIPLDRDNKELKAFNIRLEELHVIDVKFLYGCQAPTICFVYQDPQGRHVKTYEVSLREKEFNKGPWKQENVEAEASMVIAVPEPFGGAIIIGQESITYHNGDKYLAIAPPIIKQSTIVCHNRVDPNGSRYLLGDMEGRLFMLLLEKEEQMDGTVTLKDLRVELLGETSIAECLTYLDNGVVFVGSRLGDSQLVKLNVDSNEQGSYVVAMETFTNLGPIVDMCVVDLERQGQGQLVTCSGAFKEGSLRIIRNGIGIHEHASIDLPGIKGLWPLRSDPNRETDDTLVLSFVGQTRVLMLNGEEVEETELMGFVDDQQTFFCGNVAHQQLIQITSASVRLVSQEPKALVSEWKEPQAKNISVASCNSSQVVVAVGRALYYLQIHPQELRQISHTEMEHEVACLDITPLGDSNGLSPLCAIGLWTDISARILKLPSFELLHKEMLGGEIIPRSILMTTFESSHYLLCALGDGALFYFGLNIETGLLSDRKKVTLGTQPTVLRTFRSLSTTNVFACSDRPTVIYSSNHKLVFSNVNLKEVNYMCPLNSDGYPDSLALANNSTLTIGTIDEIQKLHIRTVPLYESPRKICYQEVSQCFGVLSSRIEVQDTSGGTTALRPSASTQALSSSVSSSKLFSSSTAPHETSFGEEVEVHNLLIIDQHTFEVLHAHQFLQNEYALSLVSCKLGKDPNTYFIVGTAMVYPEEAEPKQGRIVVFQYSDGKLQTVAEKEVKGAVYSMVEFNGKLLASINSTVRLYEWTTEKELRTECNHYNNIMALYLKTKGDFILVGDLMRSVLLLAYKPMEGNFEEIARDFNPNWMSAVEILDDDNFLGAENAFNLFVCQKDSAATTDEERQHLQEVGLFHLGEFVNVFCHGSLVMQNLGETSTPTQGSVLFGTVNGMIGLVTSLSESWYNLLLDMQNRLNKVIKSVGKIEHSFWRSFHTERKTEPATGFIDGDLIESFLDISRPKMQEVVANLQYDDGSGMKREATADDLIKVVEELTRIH
Sequence of CK1α (P48729 whole entry): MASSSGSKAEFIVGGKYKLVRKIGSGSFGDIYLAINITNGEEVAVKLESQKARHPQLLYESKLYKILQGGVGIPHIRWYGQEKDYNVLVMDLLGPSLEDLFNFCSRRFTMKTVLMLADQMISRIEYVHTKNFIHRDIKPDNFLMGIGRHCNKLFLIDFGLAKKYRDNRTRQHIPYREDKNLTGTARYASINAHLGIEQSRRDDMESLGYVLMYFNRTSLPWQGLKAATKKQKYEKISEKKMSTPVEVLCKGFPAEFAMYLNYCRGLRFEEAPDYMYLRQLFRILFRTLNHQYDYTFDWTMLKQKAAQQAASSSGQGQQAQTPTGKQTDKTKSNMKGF
Sequence of CK1α (Q96SW2 whole entry): as the sequence (Q96SW2 whole entry) above
Sequence of CK1α (Q16531 whole entry partner): as the sequence (Q16531 whole entry partner) above

Structure (SMILES): O=C1CCC(N2Cc3c(CNC(=O)c4ccc(F)cc4)cccc3C2=O)C(=O)N1 (centres unmarked) [SJ7095]
- Treatment-induced cell death (annexin-V) ([1]; 1 μM, 72 h, vs DMSO): increased cell death
- total apoptosis, flow cytometry ([1]; SI_Fig 4c, DMSO 9.7, 8.6, 9.8): 14.9 and 14.2 and 11
- total apoptosis, flow cytometry ([1]; SI_Fig 5c, DMSO 8, 7.6, 6.1): 18.3 and 22.4 and 27.2
- Late apoptosis, flow cytometry ([1]; SI_Fig 4b, DMSO 3, 2.7, 3): 4.8 and 4.2 and 3.7
- Early apoptosis, flow cytometry ([1]; SI_Fig 4b, DMSO 6.8, 5.8, 6.8): 10.1 and 7.2
- Late apoptosis, flow cytometry ([1]; SI_Fig 5b, DMSO 1.5, 1.2, 1.2): 4.9 and 6.3 and 8.6
- Early apoptosis, flow cytometry ([1]; SI_Fig 5b, DMSO 6.5, 6.4, 4.9): 13.4 and 16.1 and 18.6
- CK1a Degradation Rate Constant ([2]; 0.111 uM): 0.8978 λ/hour
- CK1a Percent Maximum Degradation ([2]; 0.111 uM): 64.66% and 62.79% and 62.08%
- CK1a Degradation Rate Constant ([2]; 0.333 uM): 1.129 λ/hour
- CK1a Percent Maximum Degradation ([2]; 0.333 uM): 74.90% and 74.15% and 73.38%
- CK1a Degradation Rate Constant ([2]; 1 uM): 1.27 λ/hour
- CK1a Percent Maximum Degradation ([2]; 1 uM): 79.97% and 79.25% and 79.09%
- CK1a Degradation Rate Constant ([2]; 3 uM): 1.321 λ/hour
- CK1a Percent Maximum Degradation ([2]; 3 uM): 81.84% and 80.21% and 81.34%
- CK1a Degradation Rate Constant ([2]; 10 uM): 1.331 λ/hour
- CK1a Percent Maximum Degradation ([2]; 10 uM, replicates): 81.24% and 82.05% and 83.80%
- Dmax at 0.111 µM ([2]; CK1, 0.111 uM, read-out: CK1a Percent Maximum Degradation): 64.3%
- Dmax at 0.333 µM ([2]; CK1, 0.333 uM, read-out: CK1a Percent Maximum Degradation): 75.2%
- Dmax at 1 µM ([2]; CK1, 1 uM, read-out: CK1a Percent Maximum Degradation): 79.8%
- Dmax at 3 µM ([2]; CK1, 3 uM, read-out: CK1a Percent Maximum Degradation): 80.9%
- Dmax at 10 µM ([2]; CK1, 10 uM, replicates, read-out: CK1a Percent Maximum Degradation): 81.6%
- CK1α degradation depth (HiBiT) ([2]; HEK293): near-complete degradation
- DC50 ([2]; HEK293, at 4 h): 35 nM
- CRBN binding FP, Activity ([3]; SJ7095, [Compound] 0.00309 mM): 8.11 and 10.4932 and 6.274
- CRBN binding FP, Activity ([3]; SJ7095, [Compound] 0.02781 mM): 14.0709 and 18.2061 and 13.5714
- CRBN binding FP, Activity ([3]; SJ7095, [Compound] 0.08344 mM): 25.188 and 27.6328 and 27.8185
- CRBN binding FP, Activity ([3]; SJ7095, [Compound] 0.25033 mM): 29.8604 and 33.1175 and 27.1236
- CRBN binding FP, Activity ([3]; SJ7095, [Compound] 0.75100 mM): 30.8271 and 30.718 and 33.0309
- CRBN binding FP, Activity ([3]; SJ7095, [Compound] 2.25301 mM): 46.2943 and 45.8008 and 46.583
- CRBN binding FP, Activity ([3]; SJ7095, [Compound] 6.75903 mM): 54.5113 and 62.5976 and 51.6216
- CRBN binding FP, Activity ([3]; SJ7095, [Compound] 20.27708 mM): 59.0226 and 67.7395 and 53.7066
